{
  "source": "paper PMC4404097",
  "about": "“The Inhibitory Effects of Ca^2+ Channel Blocker Nifedipine on Rat Kv2.1 Potassium Channels” (PLoS ONE, 2015)",
  "key": {"rat Kv2.1 [1]": {"molecular_target": "T1, rat Kv2.1 (Rattus norvegicus, UniProt P15387, Y380R)", "T1 construct": "gene Kcnb1; rat Kv2.1 subcloned in pEYFP-N1 (XhoI/EcoRI); homotetramer", "T1 sequence (P15387 1-857 Y380R)": "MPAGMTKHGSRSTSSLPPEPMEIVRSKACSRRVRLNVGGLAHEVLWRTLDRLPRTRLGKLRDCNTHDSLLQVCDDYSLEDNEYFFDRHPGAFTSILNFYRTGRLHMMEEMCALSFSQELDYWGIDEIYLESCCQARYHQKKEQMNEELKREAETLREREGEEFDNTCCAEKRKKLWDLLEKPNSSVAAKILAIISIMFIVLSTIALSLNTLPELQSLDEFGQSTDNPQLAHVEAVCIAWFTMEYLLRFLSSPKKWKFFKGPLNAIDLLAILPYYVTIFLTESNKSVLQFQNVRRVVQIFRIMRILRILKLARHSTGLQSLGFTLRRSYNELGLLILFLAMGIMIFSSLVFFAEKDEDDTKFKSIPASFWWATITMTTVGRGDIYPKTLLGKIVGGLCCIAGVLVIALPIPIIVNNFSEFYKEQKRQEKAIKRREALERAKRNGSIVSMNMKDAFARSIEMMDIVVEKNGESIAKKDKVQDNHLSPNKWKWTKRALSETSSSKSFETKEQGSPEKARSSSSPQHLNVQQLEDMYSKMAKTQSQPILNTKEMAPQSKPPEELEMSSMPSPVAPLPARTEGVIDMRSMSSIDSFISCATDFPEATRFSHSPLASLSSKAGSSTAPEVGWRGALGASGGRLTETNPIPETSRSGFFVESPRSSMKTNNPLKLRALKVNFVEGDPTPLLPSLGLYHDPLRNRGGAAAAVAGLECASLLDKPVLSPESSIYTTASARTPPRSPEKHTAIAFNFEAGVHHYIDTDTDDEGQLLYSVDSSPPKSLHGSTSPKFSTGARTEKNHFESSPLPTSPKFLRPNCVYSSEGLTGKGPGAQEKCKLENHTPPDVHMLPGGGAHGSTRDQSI", "experiment": "whole-cell patch clamp, Hill fit of concentration-response", "assay_type": "cell-based"}, "rat Kv2.1 [2]": {"molecular_target": "T2, rat Kv2.1 (Rattus norvegicus, UniProt P15387)", "T2 construct": "gene Kcnb1; rat Kv2.1 subcloned in pEYFP-N1 (XhoI/EcoRI); homotetramer", "T2 sequence (P15387 1-857)": "T1 sequence (P15387 1-857 Y380R) with R380Y", "experiment": "whole-cell patch clamp, Hill fit of concentration-response", "assay_type": "cell-based"}},
  "note": "Changes are numbered by the printed parent chain.",
  "data": [
    {"smiles": "COC(=O)C1=C(C)NC(C)=C(C(=O)OC)C1c1ccccc1[N+](=O)[O-]", "note": "[nifedipine]", "values": [
      {"measurement": "IC50", "setting": "rat Kv2.1 [1]", "result": "15.2 ± 1.3", "unit": "µM"},
      {"measurement": "IC50", "setting": "rat Kv2.1 [2]", "result": "37.5 ± 5.7", "unit": "µM"}
    ]}
  ]
}
